We go through 14 compounds from ChEMBL document CHEMBL2331192, “Naphthalenyl derivatives for hitting P-gp/MRP1/BCRP transporters” (Bioorg Med Chem, 2013).

For series [1], the target named is T1, ATP-dependent translocase ABCB1 (Homo sapiens, UniProt P08183). The experiment in a line: Activity at MDR1 (unknown origin) expressed in MDCK cells assessed as interference with calcein-AM efflux incubated for 30 mins prior to calcein-Am addition measured after 30 mins by fluorometric analysis. The format is cell-based.
In series [2] the target is Multidrug resistance-associated protein 1 (Homo sapiens, UniProt P33527). The experiment in a line: Activity at MRP1 (unknown origin) expressed in MDCK cells assessed as interference calcein-AM efflux incubated for 30 mins prior to calcein-Am addition measured after 30 mins by fluorometric analysis. The format is cell-based.
The nature of series [3]: Apparent permeability across human Caco2 cells after 2 hrs. The format is ADME, cell-based. The following applies: Caco-2.
Series [4] has as its target T1, ATP-dependent translocase ABCB1. The experiment in a line: Activity at MDR1 (unknown origin) expressed in MDCK cells assessed as ATPase activity after 2 hrs by ATPlite assay. It counts as cell-based.
For series [5], the target named is T2, Broad substrate specificity ATP-binding cassette transporter ABCG2 (Homo sapiens, UniProt Q9UNQ0).
T2 sequence (Q9UNQ0 whole entry): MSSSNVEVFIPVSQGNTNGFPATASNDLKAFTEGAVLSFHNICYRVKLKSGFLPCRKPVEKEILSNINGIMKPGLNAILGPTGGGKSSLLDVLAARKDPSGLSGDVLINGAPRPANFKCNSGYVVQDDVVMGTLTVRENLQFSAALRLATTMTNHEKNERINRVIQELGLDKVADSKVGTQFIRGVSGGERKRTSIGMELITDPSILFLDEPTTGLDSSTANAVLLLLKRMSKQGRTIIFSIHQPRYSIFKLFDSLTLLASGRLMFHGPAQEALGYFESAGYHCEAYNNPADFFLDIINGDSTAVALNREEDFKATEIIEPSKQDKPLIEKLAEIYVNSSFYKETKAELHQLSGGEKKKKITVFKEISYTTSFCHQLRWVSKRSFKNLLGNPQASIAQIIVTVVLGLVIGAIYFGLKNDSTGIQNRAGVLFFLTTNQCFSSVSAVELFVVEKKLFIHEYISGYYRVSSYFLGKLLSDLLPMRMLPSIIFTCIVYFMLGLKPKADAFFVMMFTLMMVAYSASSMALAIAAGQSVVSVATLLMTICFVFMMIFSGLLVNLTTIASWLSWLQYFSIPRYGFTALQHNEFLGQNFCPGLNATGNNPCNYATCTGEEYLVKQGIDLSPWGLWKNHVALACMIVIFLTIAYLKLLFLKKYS
The experiment in a line: Activity at BCRP (unknown origin) expressed in MDCK cells assessed as interference with rhodamine-123 efflux. It counts as cell-based.

Series [6] addresses T2, Broad substrate specificity ATP-binding cassette transporter ABCG2. The experiment in a line: Activity at BCRP (unknown origin) expressed in MDCK cells assessed as interference with rhodamine-123 efflux at 200 nM. It counts as cell-based. Particulars: 0.2 µM; call rule not given here.

Each structure is given as a SMILES string.

T1 sequence (P08183 whole entry): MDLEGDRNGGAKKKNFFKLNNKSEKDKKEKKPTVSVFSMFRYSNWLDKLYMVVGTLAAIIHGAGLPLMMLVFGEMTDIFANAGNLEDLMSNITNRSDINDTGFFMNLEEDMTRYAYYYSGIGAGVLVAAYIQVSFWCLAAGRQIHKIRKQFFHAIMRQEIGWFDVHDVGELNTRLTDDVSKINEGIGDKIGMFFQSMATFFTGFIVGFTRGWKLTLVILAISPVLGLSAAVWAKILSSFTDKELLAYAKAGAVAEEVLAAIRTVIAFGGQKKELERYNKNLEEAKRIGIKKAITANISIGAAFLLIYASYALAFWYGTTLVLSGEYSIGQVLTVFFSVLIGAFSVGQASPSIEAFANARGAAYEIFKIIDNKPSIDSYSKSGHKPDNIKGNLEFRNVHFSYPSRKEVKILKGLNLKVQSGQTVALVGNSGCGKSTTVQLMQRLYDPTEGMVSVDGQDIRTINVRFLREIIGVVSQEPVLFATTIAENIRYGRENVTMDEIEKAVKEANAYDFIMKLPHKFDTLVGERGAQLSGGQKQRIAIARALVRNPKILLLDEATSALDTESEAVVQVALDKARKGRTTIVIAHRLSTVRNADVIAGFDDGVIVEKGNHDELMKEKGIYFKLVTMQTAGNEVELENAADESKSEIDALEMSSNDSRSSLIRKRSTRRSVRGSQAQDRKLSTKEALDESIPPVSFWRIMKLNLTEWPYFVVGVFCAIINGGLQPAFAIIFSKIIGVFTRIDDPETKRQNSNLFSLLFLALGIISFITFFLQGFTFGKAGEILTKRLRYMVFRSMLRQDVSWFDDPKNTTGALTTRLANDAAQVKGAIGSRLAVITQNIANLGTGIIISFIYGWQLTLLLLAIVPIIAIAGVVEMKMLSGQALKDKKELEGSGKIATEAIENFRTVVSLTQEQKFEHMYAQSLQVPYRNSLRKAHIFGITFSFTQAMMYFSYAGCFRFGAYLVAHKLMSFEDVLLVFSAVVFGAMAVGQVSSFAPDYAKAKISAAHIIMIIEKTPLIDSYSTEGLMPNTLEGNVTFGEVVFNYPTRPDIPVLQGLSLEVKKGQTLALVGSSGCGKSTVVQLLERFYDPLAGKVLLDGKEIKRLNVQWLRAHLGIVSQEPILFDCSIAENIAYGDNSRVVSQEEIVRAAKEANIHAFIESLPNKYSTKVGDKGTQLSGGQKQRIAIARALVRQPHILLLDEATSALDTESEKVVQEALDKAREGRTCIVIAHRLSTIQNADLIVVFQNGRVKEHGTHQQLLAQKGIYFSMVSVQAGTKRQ
Multidrug resistance-associated protein 1, sequence (P33527 whole entry): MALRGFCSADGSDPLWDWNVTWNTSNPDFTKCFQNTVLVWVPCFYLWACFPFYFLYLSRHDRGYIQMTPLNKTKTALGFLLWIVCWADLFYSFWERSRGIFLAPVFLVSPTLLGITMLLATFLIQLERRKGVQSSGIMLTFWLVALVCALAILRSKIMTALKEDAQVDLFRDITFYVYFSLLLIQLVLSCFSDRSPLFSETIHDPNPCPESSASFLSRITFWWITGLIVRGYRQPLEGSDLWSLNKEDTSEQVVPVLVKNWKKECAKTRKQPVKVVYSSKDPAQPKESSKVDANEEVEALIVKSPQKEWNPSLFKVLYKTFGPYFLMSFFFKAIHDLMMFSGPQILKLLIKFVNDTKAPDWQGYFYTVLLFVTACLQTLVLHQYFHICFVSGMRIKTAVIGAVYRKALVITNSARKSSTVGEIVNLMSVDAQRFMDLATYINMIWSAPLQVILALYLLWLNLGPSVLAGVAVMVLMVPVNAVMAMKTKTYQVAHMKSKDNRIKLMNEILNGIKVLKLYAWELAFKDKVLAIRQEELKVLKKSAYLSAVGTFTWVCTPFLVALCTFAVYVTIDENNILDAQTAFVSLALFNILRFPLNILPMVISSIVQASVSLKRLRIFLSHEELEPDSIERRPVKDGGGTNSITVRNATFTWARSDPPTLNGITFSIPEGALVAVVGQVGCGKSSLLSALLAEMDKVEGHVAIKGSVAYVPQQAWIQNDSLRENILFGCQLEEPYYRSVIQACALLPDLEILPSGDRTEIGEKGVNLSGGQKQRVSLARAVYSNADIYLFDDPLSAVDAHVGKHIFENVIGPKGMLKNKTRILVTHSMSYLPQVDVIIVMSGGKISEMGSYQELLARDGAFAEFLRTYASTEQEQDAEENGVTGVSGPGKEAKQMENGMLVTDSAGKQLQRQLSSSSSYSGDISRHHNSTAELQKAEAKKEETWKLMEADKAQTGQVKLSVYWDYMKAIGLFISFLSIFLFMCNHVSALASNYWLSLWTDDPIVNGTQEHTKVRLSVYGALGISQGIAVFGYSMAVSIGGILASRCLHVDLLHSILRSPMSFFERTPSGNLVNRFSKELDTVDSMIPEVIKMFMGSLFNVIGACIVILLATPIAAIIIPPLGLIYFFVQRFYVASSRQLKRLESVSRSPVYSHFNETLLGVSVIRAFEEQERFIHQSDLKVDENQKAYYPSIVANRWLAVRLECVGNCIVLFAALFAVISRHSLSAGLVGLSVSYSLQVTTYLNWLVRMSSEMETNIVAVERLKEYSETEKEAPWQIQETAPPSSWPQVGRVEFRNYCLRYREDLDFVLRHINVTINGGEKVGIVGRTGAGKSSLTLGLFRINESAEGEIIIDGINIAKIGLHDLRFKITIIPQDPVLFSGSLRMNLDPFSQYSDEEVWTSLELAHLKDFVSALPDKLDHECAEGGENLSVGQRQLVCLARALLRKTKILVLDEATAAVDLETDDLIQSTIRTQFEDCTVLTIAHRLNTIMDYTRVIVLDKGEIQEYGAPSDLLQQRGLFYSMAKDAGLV

With `COc1cc2c(cc1OC)CN(Cc1ccc(-c3ccc4ccccc4c3)o1)CC2`, the concentration for a half-maximal effect (EC50) in series [1] was 7.1 µM; in series [2] it was above 100 µM. For the same compound, the apparent permeability (Papp) at 2 h in series [3] amounted to 0.33 ×10⁻⁶ cm/s. In series [4], the Activity result is recorded as “Not Active”.

Turning to `COc1cc2c(cc1OC)CN(Cc1csc(-c3ccc4ccccc4c3)n1)CC2`, the results for the 50% effective concentration (EC50) in series [1] and in series [2] were 3.5 µM and 3.2 µM, respectively. Also, in series [3], the Papp at 2 h was found to be 2.37 ×10⁻⁶ cm/s. Also, the Activity entry in series [4] is on record as “Not Active”.

Take `COc1cc2c(cc1OC)CN(Cc1csc(-c3ccc4cc(F)ccc4c3)n1)CC2`: the results for the EC50 in series [1] and in series [2] were 4.8 µM and 8.8 µM, respectively. In addition, the Papp at 2 h in series [3] is 0.95 ×10⁻⁶ cm/s. Also, the Activity result in series [4] was “Not Active”.

`COc1ccc2cc(-c3ccc(CN4CCc5cc(OC)c(OC)cc5C4)o3)ccc2c1`: the 50% effective concentration (EC50) was 2.9 µM in series [1] and above 100 µM in series [2]. In addition, the Papp at 2 h in series [3] came out at 0.408 ×10⁻⁶ cm/s. For the same compound, the Activity result in series [4] was “Not Active”.

For `COc1cc2c(cc1OC)CN(CCCC1CCCc3c(OC)cccc31)CC2` (centres undefined), the 50% effective concentration (EC50) in series [2] is above 100 µM.

For `COc1cc2c(cc1OC)CN(Cc1coc(-c3ccc4ccccc4c3)n1)CC2`, the EC50 in series [1] was 2.3 µM. In addition, the apparent permeability coefficient (Papp) at 2 h in series [3] stood at 0.038 ×10⁻⁶ cm/s. In addition, the Activity entry in series [4] was “Not Active”.

For the compound `COc1cc2c(cc1OC)CN(CC/C=C1\CCCc3c(OC)cccc31)CC2`, the EC50 in series [1] is 1.5 µM; in series [2] it was 2.8 µM.

With `COc1cc2c(cc1OC)CN(Cc1coc(-c3ccc4cc(Br)ccc4c3)n1)CC2`, the EC50 in series [1] was 1.8 µM; in series [2], above 100 µM. Also, the Papp at 2 h in series [3] was 0.32 ×10⁻⁶ cm/s. Besides, the Activity result in series [4] is reported as “Not Active”.

With `COc1cc2c(cc1OC)CN(Cc1coc(-c3ccc4cc(F)ccc4c3)n1)CC2`, in series [3], the Papp at 2 h stood at 0.082 ×10⁻⁶ cm/s. For the same compound, in series [4], the Activity entry is listed as “Not Active”.

Take `COc1cc2c(cc1OC)CN(Cc1ccc(-c3ccc(O)cc3)cc1)CC2`: the concentration giving a half-maximal response (EC50) is 0.69 µM in series [1], 9.3 µM in series [2] and 73 µM in series [5].

Consider `COc1cc2c(cc1OC)CN(Cc1coc(-c3ccc4cc(O)ccc4c3)n1)CC2`, for which the Papp at 2 h in series [3] came out at 0.157 ×10⁻⁶ cm/s. Moreover, the Activity entry in series [4] was “Not Active”.

With `COc1ccc2cc(-c3nc(CN4CCc5cc(OC)c(OC)cc5C4)cs3)ccc2c1`, the Activity result is “Not Active” in series [6] and “Active” in series [4]. Moreover, the Papp at 2 h in series [3] was 0.6 ×10⁻⁶ cm/s.

On to `COc1ccc2cc(-c3nc(CN4CCc5cc(OC)c(OC)cc5C4)co3)ccc2c1`, for which the EC50 in series [1] was 0.6 µM; in series [2], 14.7 µM. Moreover, the Activity entry in series [6] was “Not Active”; in series [4], “Active”. The apparent permeability coefficient (Papp) at 2 h in series [3] was 0.38 ×10⁻⁶ cm/s.

Consider `COc1cc2c(cc1OC)CN(Cc1csc(-c3ccc4cc(Br)ccc4c3)n1)CC2`, for which the Activity result in series [6] is listed as “Not Active”; in series [4], “Active”. Further, the Papp at 2 h in series [3] turned out to be 0.59 ×10⁻⁶ cm/s.
